Source: patent US20240041042A1, “1-(PYRIDYL)-5-AZINYLPYRAZOLE DERIVATIVES, AND THEIR USE FOR CONTROL OF UNDESIRED PLANT GROWTH” (Bayer Aktiengesellschaft, priority 2020, published 2024)
Like-named read-outs stand apart in the source and are kept apart here.

Legend:
Assay type in all cases: in vivo
Setaria viridis (SETVI) [1] = assay: Pre-emergence herbicidal action against SETVI; settings: dosage 320 g/ha
Procedure, shortened: (§1)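 Pre-emergence soil-surface spray, WP/EC formulation, 0.5% additive, 600 l/ha water, rates of 320 g/ha or lower. Greenhouse, ~3 wk. Visual score, % of untreated control (100% = plants dead, 0% = like control).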

[2] = system: Amaranthus retroflexus (AMARE); assay: Pre-emergence herbicidal action against AMARE; settings: visual scoring after about 3 weeks vs untreated controls
Procedure, shortened: as §1

[3] = system: Alopecurus myosuroides (ALOMY); assay: Post-emergence herbicidal action against ALOMY; settings: visual rating about 3 weeks after treatment vs untreated controls (100% = plants have died, 0% = like control plants)
Procedure, shortened: (§2)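 Post-emergence greenhouse spray, one-leaf stage, 600 l/ha water plus 0.5% additive; WP or EC formulations; application rates 320 g/ha or lower. Visual % damage vs untreated controls at ~3 weeks.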

[4] = system: Pharbitis purpurea (PHBPU); assay: Pre-emergence herbicidal action against PHBPU; settings: dosage 320 g/ha
Procedure, shortened: as §1

Lolium rigidum (LOLRI) [5] = assay: Post-emergence herbicidal action against LOLRI
Procedure, shortened: as §2

Lolium rigidum (LOLRI) [6] = assay: Pre-emergence herbicidal action against LOLRI
Procedure, shortened: as §1

[7] = system: Matricaria inodora (MATIN); assay: Post-emergence herbicidal action against MATIN; settings: dosage 320 g/ha
Procedure, shortened: as §2

Viola tricolor (VIOTR) [8] = assay: Post-emergence herbicidal action against VIOTR
Procedure, shortened: as §2

[9] = system: Digitaria sanguinalis (DIGSA); assay: Pre-emergence herbicidal action against DIGSA
Procedure, shortened: as §1

[10] = system: Amaranthus retroflexus (AMARE); assay: Post-emergence herbicidal action against AMARE
Procedure, shortened: as §2

[11] = system: Digitaria sanguinalis (DIGSA); assay: Post-emergence herbicidal action against DIGSA; settings: 320 g/ha, visual rating about 3 weeks after treatment
Procedure, shortened: as §2

[12] = system: Pharbitis purpurea (PHBPU); assay: Post-emergence herbicidal action against PHBPU; settings: dosage 320 g/ha
Procedure, shortened: as §2

[13] = system: Echinochloa crus-galli (ECHCG); assay: Pre-emergence herbicidal action against ECHCG; settings: dosage 320 g/ha
Procedure, shortened: as §1

Setaria viridis (SETVI) [14] = assay: Post-emergence herbicidal action against SETVI; settings: dosage 320 g/ha
Procedure, shortened: as §2

[15] = system: Verconica persica (VERPE); assay: Post-emergence herbicidal action against VERPE
Procedure, shortened: as §2

Viola tricolor (VIOTR) [16] = assay: Pre-emergence herbicidal action against VIOTR
Procedure, shortened: as §1

Brassica napus (BRSNW) = settings: 80 g/ha, crop plant compatibility, in comparison to untreated controls
Procedure, shortened: (§3)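 Crop injury rated visually in percent against untreated plants roughly 3 weeks after treatment (0% no effect, 100% plants dead). Compounds, as WP or EC with 0.5% additive in 600 l/ha water, were applied to the covering soil right after sowing; greenhouse growth. Suffixes a, b, c denote different dosages.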

Zea mays (ZEAMX) [17] = settings: pre-emergence, crop plant compatibility, in comparison to untreated controls
Procedure, shortened: as §3

[18] = system: Echinochloa crus-galli (ECHCG); assay: Post-emergence herbicidal action against ECHCG
Procedure, shortened: as §2

[19] = system: Matricaria inodora (MATIN); assay: Pre-emergence herbicidal action against MATIN
Procedure, shortened: as §1

[20] = system: Verconica persica (VERPE); assay: Pre-emergence herbicidal action against VERPE; settings: dosage 320 g/ha
Procedure, shortened: as §1

[21] = system: Polygonum convolvulus (POLCO); assay: Post-emergence herbicidal action against POLCO; settings: dosage 320 g/ha
Procedure, shortened: as §2

Oryza sativa (ORYSA) = settings: crop plant compatibility
Procedure, shortened: (§4)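 One-leaf-stage crops (2–3 wk post-sowing, sandy loam, greenhouse) sprayed on green parts; 0.5% additive, 600 l/ha water. Rated by eye ~3 wk later, % vs untreated; suffixes a/b/c mark different dosages.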

[22] = system: Triticum aestivum (TRZAS); settings: crop plant compatibility, 80 g/ha, effect vs untreated controls
Procedure, shortened: as §4

Zea mays (ZEAMX) [23] = settings: for Post-emergence action against ZEAMX in %: crop plant compatibility, 80 g/ha, effect vs untreated controls
Procedure, shortened: as §4

[24] = system: Alopecurus myosuroides (ALOMY); assay: Pre-emergence herbicidal action against ALOMY; settings: scored visually after about 3 weeks, 100% = plants have died
Procedure, shortened: as §1

Avena fatua (AVEFA) [25] = assay: Post-emergence herbicidal action against AVEFA; settings: 80 g/ha, visual rating about 3 weeks after treatment
Procedure, shortened: as §2

[26] = system: Polygonum convolvulus (POLCO); assay: Pre-emergence herbicidal action against POLCO
Procedure, shortened: as §1

Avena fatua (AVEFA) [27] = assay: Pre-emergence herbicidal action against AVEFA; settings: visual scoring after about 3 weeks vs untreated controls
Procedure, shortened: as §1

[28] = 320 g/ha, visual rating about 3 weeks after treatment
[29] = 80 g/ha, effect in comparison to untreated controls

## COC(=O)COc1nn(-c2nc(F)ccc2F)c(-c2ccc(F)nc2)c1C1CC1 [Example I-300]
Setaria viridis (SETVI) [1]
  Pre-emergence action against SETVI in %: 90%
[2]; 320 g/ha
  Pre-emergence action against AMARE in %: 90%
[3]; 80 g/ha
  Post-emergence action against ALOMY in %: 80%
[3]; 320 g/ha
  Post-emergence action against ALOMY in %: 90%
[4]
  Pre-emergence action against PHBPU in %: 80%
Lolium rigidum (LOLRI) [5]; dosage 80 g/ha
  Post-emergence action against LOLRI in %: 90%
Lolium rigidum (LOLRI) [5]; dosage 320 g/ha
  Post-emergence action against LOLRI in %: 90%
Lolium rigidum (LOLRI) [6]; dosage 80 g/ha
  Pre-emergence action against LOLRI in %: 80%
Lolium rigidum (LOLRI) [6]; dosage 320 g/ha
  Pre-emergence action against LOLRI in %: 90%
[7]
  Post-emergence action against MATIN in %: 80%
Viola tricolor (VIOTR) [8]; 80 g/ha
  Post-emergence action against VIOTR in %: 80%
Viola tricolor (VIOTR) [8]; 320 g/ha
  Post-emergence action against VIOTR in %: 90%
[9]; 80 g/ha, visual scoring after about 3 weeks vs untreated controls
  Pre-emergence action against DIGSA in %: 90%
[9]; dosage 320 g/ha
  Pre-emergence action against DIGSA in %: 100%
[10]; [28]
  Post-emergence action against AMARE in %: 80%
[11]
  Post-emergence action against DIGSA in %: 80%
[12]
  Post-emergence action against PHBPU in %: 80%
[13]
  Pre-emergence action against ECHCG in %: 90%
Setaria viridis (SETVI) [14]
  Post-emergence action against SETVI in %: 80%
[15]; 320 g/ha, VERPE
  Post-emergence action against VERPE in %: 80%
Viola tricolor (VIOTR) [16]; 320 g/ha, Viola tricolor
  Pre-emergence action against VIOTR in %: 90%
Brassica napus (BRSNW)
  Pre-emergence action against BRSNW in %: 20%
Zea mays (ZEAMX) [17]; 80 g/ha
  Pre-emergence action against ZEAMX in %: 10%
[18]; dosage 80 g/ha
  Post-emergence action against ECHCG in %: 80%
[18]; dosage 320 g/ha
  Post-emergence action against ECHCG in %: 90%
[19]; dosage 320 g/ha
  Pre-emergence action against MATIN in %: 80%

## COC(=O)CNC(=O)COc1nn(-c2ccccn2)c(-c2ccc(F)nc2)c1F [Example I-377]
[20]
  Pre-emergence action against VERPE in %: 80%
[21]
  Post-emergence action against POLCO in %: 80%
Setaria viridis (SETVI) [1]
  Pre-emergence action against SETVI in %: 90%
[2]; 80 g/ha
  Pre-emergence action against AMARE in %: 80%
[2]; 320 g/ha
  Pre-emergence action against AMARE in %: 90%
Oryza sativa (ORYSA); [29]
  Post-emergence action against ORYSA in %: 0%
[22]
  Post-emergence action against TRZAS in %: 0%
Zea mays (ZEAMX) [23]
  Post-emergence action against ZEAMX in %: 0%
[24]; 320 g/ha
  Pre-emergence action against ALOMY: 80%
[10]; 80 g/ha, visual rating about 3 weeks after treatment vs untreated controls (100% = plants have died, 0% = like control plants)
  Post-emergence action against AMARE in %: 80%
[10]; [28]
  Post-emergence action against AMARE in %: 90%
[12]
  Post-emergence action against PHBPU in %: 90%
Setaria viridis (SETVI) [14]
  Post-emergence action against SETVI in %: 90%
[15]; 320 g/ha, VERPE
  Post-emergence action against VERPE in %: 80%
Brassica napus (BRSNW)
  Pre-emergence action against BRSNW in %: 0%
Zea mays (ZEAMX) [17]; 80 g/ha
  Pre-emergence action against ZEAMX in %: 0%
Zea mays (ZEAMX) [17]; 320 g/ha
  Pre-emergence action against ZEAMX in %: 0%
[18]; dosage 80 g/ha
  Post-emergence action against ECHCG in %: 80%
[18]; dosage 320 g/ha
  Post-emergence action against ECHCG in %: 90%
[19]; dosage 80 g/ha
  Pre-emergence action against MATIN in %: 80%
[19]; dosage 320 g/ha
  Pre-emergence action against MATIN in %: 90%

## C[C@@H](Oc1nn(-c2ncccc2Cl)c(-c2ccc(F)nc2)c1Br)C(=O)O [Example I-25]
[20]
  Pre-emergence action against VERPE in %: 90%
Setaria viridis (SETVI) [1]
  Pre-emergence action against SETVI in %: 100%
[2]; 80 g/ha
  Pre-emergence action against AMARE in %: 90%
[2]; 320 g/ha
  Pre-emergence action against AMARE in %: 100%
[3]; 80 g/ha
  Post-emergence action against ALOMY in %: 90%
Oryza sativa (ORYSA); 20 g/ha, effect vs untreated controls
  Post-emergence action against ORYSA in %: 0%
Oryza sativa (ORYSA); [29]
  Post-emergence action against ORYSA in %: 10%
Zea mays (ZEAMX) [23]; 20 g/ha, ZEAMX, effect in comparison to untreated controls
  Post-emergence action against ZEAMX in % (crop plant compatibility): 10%
Zea mays (ZEAMX) [23]
  Post-emergence action against ZEAMX in %: 20%
[24]; 80 g/ha
  Pre-emergence action against ALOMY: 80%
[24]; 320 g/ha
  Pre-emergence action against ALOMY: 90%
Avena fatua (AVEFA) [25]
  Post-emergence action against AVEFA in %: 90%
Lolium rigidum (LOLRI) [5]; dosage 80 g/ha
  Post-emergence action against LOLRI in %: 80%
Lolium rigidum (LOLRI) [6]; dosage 320 g/ha
  Pre-emergence action against LOLRI in %: 100%
[26]; dosage 80 g/ha
  Pre-emergence action against POLCO in %: 80%
[26]; dosage 320 g/ha
  Pre-emergence action against POLCO in %: 90%
Avena fatua (AVEFA) [27]; 80 g/ha
  Pre-emergence action against AVEFA in %: 90%
Avena fatua (AVEFA) [27]; 320 g/ha
  Pre-emergence action against AVEFA in %: 100%
[13]
  Pre-emergence action against ECHCG in %: 90%
[15]; dosage 80 g/ha
  Post-emergence action against VERPE in %: 80%
Viola tricolor (VIOTR) [16]; 320 g/ha, Viola tricolor
  Pre-emergence action against VIOTR in %: 100%
Viola tricolor (VIOTR) [16]; dosage 80 g/ha
  Pre-emergence action against VIOTR in %: 100%
Brassica napus (BRSNW)
  Pre-emergence action against BRSNW in %: 10%
Zea mays (ZEAMX) [17]; 80 g/ha
  Pre-emergence action against ZEAMX in %: 10%
[19]; dosage 320 g/ha
  Pre-emergence action against MATIN in %: 90%
